System: 475296-252-R-J1-PDC spheroid viability
Test: Anticancer human tumor 475296-252-R-J1-PDC patient-derived rectal carcinoma cell line growth inhibition [PI3K]
Settings: spheroids with HUVEC and MSC; for IC50: curve of first compound; for viability, T/C: stronger effect = lower value
Description: Combinatorial screen of targeted agents with the PI3K inhibitors inavolisib, alpelisib, duvelisib, and copanlisib in multi-cell type tumor spheroids
A high-throughput screen of multi-cell type tumor spheroids was designed to identify active combinations of targeted small molecules and PI3K pathway inhibitors. Complex spheroids include a stromal component modeled by human endothelial cells (HUVEC) and fibroblasts modeled by human mesenchymal stem cells (MSCs). The concentration ranges selected for each drug and investigational agent were based upon clinically achievable concentrations if the clinical Cmax of the agent was known.
Compounds. The drugs and investigational agents: inavolisib (NSC800729), alpelisib (NSC765974), duvelisib (NSC772469), copanlisib (NSC816437), ipatasertib (NSC767898), afuresertib (NSC778305), talazoparib (NSC767125), sapanisertib (NSC764658), selumetinib (NSC741078), tovorafenib (DAY101, NSC766906), vemurafenib (NSC761431), ravoxertinib (NSC781343), sotorasib (NSC818433), MRTX1133 (NSC 836407), abemaciclib (NSC 768073), palbociclib (NSC758247), venetoclax (NSC 766270), SY5609 (NSC837396), enzalutamide (NSC755605), and darolutamide (NSC825331), were obtained from the National Cancer Institute (NCI) Developmental Therapeutics Program Chemical Repository. The FDA-approved anticancer drug set is available from the NCI Developmental Therapeutics Program. […] The stock solutions were prepared in dimethyl sulfoxide (DMSO, Sigma-Aldrich, St. Louis, MO, cat. D2650) at 800-fold the tested concentration and stored at -70 degrees C prior to their use. All drugs and investigational agents were tested over a range starting from a high concentration at or near the clinical Cmax and decreasing in half-log increments. If the clinical Cmax for an agent had not been determined, the highest concentration tested was 10 microM.
Cell Culture. All cells were maintained in an incubator at 37 degrees C and 5% CO2 with 95% humidity. The PDC lines were cultured according to standard operating procedures established by the NCI PDMR (https://pdmr.cancer.gov/sops/default.htm). All PDCs were thawed and cultured in Matrigel-coated flasks prepared with a working solution of 1X Ham's F-12 nutrient mix, without supplementation (Invitrogen, Waltham, MA, cat. 11765054), 100 U/mL penicillin-streptomycin (Invitrogen, cat. 15140122), and 2.5% Matrigel (Corning Inc., Corning, NY, cat. 354248) for the first three passages. The 354836-022-R-J1-PDC, 475296-252-R-J1-PDC, and 997726-040-R-J2-PDC lines were cultured in 6A media, which includes advanced DMEM/F-12 (Thermo Fisher Scientific, cat. 12634028), 10 mM HEPES (Thermo Fisher Scientific, cat. 15630080), 1X GlutaMAX supplement (Thermo Fisher Scientific, cat. 35050061), 0.1 mg/mL primocin (InvivoGen, San Diego, CA, cat. ant-pm-2), 10% defined fetal bovine serum, heat inactivated (HyClone Laboratories Inc., Logan, UT, cat. SH30070.03HI), 50% L-WRN conditioned media (ATCC, cat. CRL-3276), 1.25 mM N-Acetyl-L-cysteine (Sigma-Aldrich, cat. A9165), 10 mM nicotinamide (Sigma-Aldrich, cat. N0636), 1X B-27 supplement (Thermo Fisher Scientific, cat. 17504044), 1X N-2 supplement (Thermo Fisher Scientific, cat. 17502048), and 10 microM Y-27632 dihydrochloride (Tocris Bioscience, Bristol, United Kingdom, cat. 1254). The 624824-186-R-J2-PDC line was cultured in 6C/Colon 1B media, which includes all 6A media components plus 50 ng/mL human EGF recombinant protein (Thermo Fisher Scientific, cat. PHG0311). […]
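Also: spheroids exposed to agents for seven days before readout.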

CC(C)n1nc(-c2ccc3oc(N)nc3c2)c2c(N)ncnc21 + Cc1nc(NC(=O)N2CCCC2C(N)=O)sc1-c1ccnc(C(C)(C)C(F)(F)F)c1
IC50 (second compound 0.0316 µM): > 100 nM
IC50 (second compound 0.1 µM): > 100 nM
IC50 (second compound 0.316 µM): > 100 nM
IC50 (second compound 1 µM): > 100 nM
IC50 (second compound 3.16 µM): > 100 nM
IC50 (second compound 10 µM): > 100 nM
viability, T/C (second compound 0.0316 µM, first compound 0.000316 µM): 93.5%
viability, T/C (second compound 0.0316 µM, first compound 0.001 µM): 95.3%
viability, T/C (second compound 0.0316 µM, first compound 0.00316 µM): 93.1%
viability, T/C (second compound 0.0316 µM, first compound 0.01 µM): 88.4%
viability, T/C (second compound 0.0316 µM, first compound 0.0316 µM): 83.9%
viability, T/C (second compound 0.0316 µM, first compound 0.1 µM): 64.1%
viability, T/C (second compound 0.1 µM, first compound 0.000316 µM): 92.1%
viability, T/C (second compound 0.1 µM, first compound 0.001 µM): 98%
viability, T/C (second compound 0.1 µM, first compound 0.00316 µM): 95.2%
viability, T/C (second compound 0.1 µM, first compound 0.01 µM): 84.5%
viability, T/C (second compound 0.1 µM, first compound 0.0316 µM): 76.8%
viability, T/C (second compound 0.1 µM, first compound 0.1 µM): 62%
viability, T/C (second compound 0.316 µM, first compound 0.000316 µM): 97.1%
viability, T/C (second compound 0.316 µM, first compound 0.001 µM): 95.4%
viability, T/C (second compound 0.316 µM, first compound 0.00316 µM): 85%
viability, T/C (second compound 0.316 µM, first compound 0.01 µM): 92.8%
viability, T/C (second compound 0.316 µM, first compound 0.0316 µM): 85.9%
viability, T/C (second compound 0.316 µM, first compound 0.1 µM): 59.9%
viability, T/C (second compound 1 µM, first compound 0.000316 µM): 89.8%
viability, T/C (second compound 1 µM, first compound 0.001 µM): 106%
viability, T/C (second compound 1 µM, first compound 0.00316 µM): 87.3%
viability, T/C (second compound 1 µM, first compound 0.01 µM): 91.9%
viability, T/C (second compound 1 µM, first compound 0.0316 µM): 70.2%
viability, T/C (second compound 1 µM, first compound 0.1 µM): 57.1%
viability, T/C (second compound 3.16 µM, first compound 0.000316 µM): 83.4%
viability, T/C (second compound 3.16 µM, first compound 0.001 µM): 86%
viability, T/C (second compound 3.16 µM, first compound 0.00316 µM): 88.4%
viability, T/C (second compound 3.16 µM, first compound 0.01 µM): 77.5%
viability, T/C (second compound 3.16 µM, first compound 0.0316 µM): 82.3%
viability, T/C (second compound 3.16 µM, first compound 0.1 µM): 54.3%
viability, T/C (second compound 10 µM, first compound 0.000316 µM): 91.1%
viability, T/C (second compound 10 µM, first compound 0.001 µM): 85.1%
viability, T/C (second compound 10 µM, first compound 0.00316 µM): 83.8%
viability, T/C (second compound 10 µM, first compound 0.01 µM): 89.2%
viability, T/C (second compound 10 µM, first compound 0.0316 µM): 86.5%
viability, T/C (second compound 10 µM, first compound 0.1 µM): 54.4%

— PubChem BioAssay AID1963980 (Molecular Pharmacology Branch, DTP, NCI, 2024)
